Results as given in US12728104B2, “Therapeutic methods for preventing tumor metastasis and tumor recurrence” (LUNELLA BIOTECH, INC., priority 2020, dated 2026).
“Also recorded” adds a separate entry of the source.

Tests used:
chick embryo = assay: Embryo tolerability assay (chick embryo toxicity); format: in vivo; details: for Alive / Dead: number of embryos
Method: a) Preparation of Chicken Embryos. […] At that moment (E9), the chorioallantoic membrane (CAM) was dropped down by drilling a small hole through the eggshell into the air sac, and a 1 cm^2 window was cut in the eggshell above the CAM (19-23).
e) Embryo Tolerability Assay: Before each administration, the treatment tolerability was evaluated by scoring the number of dead embryos.

MDA-MB-231 metastasis = assay: Metastasis assay, MDA-MB-231 cells in the CAM assay (qPCR for Human Alu sequences in lower CAM); format: in vivo
Method: MDA-MB-231 cells and the CAM assay in chicken eggs were used to quantitatively measure spontaneous tumor mestastasis. An inoculum of 1×10^6 MDA-MB-231 cells was added onto the CAM of each egg (on day E9) and then eggs were then randomized into groups. On day E10, tumors were detectable and they were then treated daily for 8 days with vehicle alone (1% DMSO in PBS) or the four mitochondrial inhibitors. After 8 days of drug administration, the lower CAM was collected to evaluate the number of metastatic cells, as analyzed by qPCR with specific primers for Human Alu sequences. […] The same procedure may be used to evaluate the anti-metastasis and anti-recurrence effects of other mitochondrial inhibitors.
(§1) a) Preparation of Chicken Embryos. Fertilized White Leghorn eggs were incubated at 37.5° C. with 50% relative humidity for 9 days. At that moment (E9), the chorioallantoic membrane (CAM) was dropped down by drilling a small hole through the eggshell into the air sac, and a 1 cm^2 window was cut in the eggshell above the CAM (19-23).
b) Amplification and Grafting of Tumor Cells. The MDA-MB-231 tumor cell line was cultivated in DMEM medium supplemented with 10% FBS and 1% penicillin/streptomycin. On day E9, cells were detached with trypsin, washed with complete medium and suspended in graft medium. An inoculum of 1×10^6 cells was added onto the CAM of each egg (E9) and then eggs were randomized into groups (19-23).
d) Metastasis Assays. On day E18, a 1 cm^2 portion of the lower CAM was collected to evaluate the number of metastatic cells in 8 samples per group (n=8). Genomic DNA was extracted from the CAM (commercial kit) and analyzed by qPCR with specific primers for Human Alu sequences. Calculation of Cq for each sample, mean Cq and relative amounts of metastases for each group are directly managed by the Bio-Rad® CFX Maestro software. A one-way ANOVA analysis with post-tests was performed on all the data (19-23).

MDA-MB-231 tumor growth = assay: Tumor growth assay, MDA-MB-231 cells on the chorio-allantoic membrane (CAM) in chicken eggs; format: in vivo, human; details: treated daily for 8 days
Method: To experimentally evaluate their functional effects in vivo, the inventors used MDA-MB-231 cells and the well-established chorio-allantoic membrane (CAM) assay in chicken eggs, to quantitatively measure tumor growth and metastasis. An inoculum of 1×10^6 MDA-MB-231 cells was added onto the CAM of each egg (day E9) and then eggs were randomized into groups. On day E10, tumors were detectable and they were then treated daily for 8 days with vehicle alone (1% DMSO in PBS) or the three Mitoriboscin compounds. In parallel, the inventors also evaluated the activity of another mitochondrial inhibitor, namely butene-1,4-bis-triphenyl-phosphonium (Bis-TPP), which was identified as an inhibitor of 3D-mammosphere formation in MCF7 cells, with an IC-50 of less than 0.5 μM.
After 8 days of drug administration (on day E18), all tumors were weighed, and the lower CAM was collected to evaluate the number of metastatic cells, as analyzed by qPCR with specific primers for Human Alu sequences.
as §1
b) Amplification and Grafting of Tumor Cells. […]

MCF7 cells = details: cited from earlier work
MDA-MB-231 cells = details: cited from earlier work
[1] = system: CSCs in cell lines derived from 8 different cancer types; details: cell lines from 8 cancer types incl. MCF7, T47D, MDA-MB-231, MCF10.DCIS.COM; cited from earlier work

Structure (SMILES): O[C@@H]1[C@H](NCc2ccccc2)CCC[C@H]1Oc1ccccc1Oc1ccc(Cl)cc1 [23/G4]
- % Alive (chick embryo; 0.5 mM): 70%
- % Dead (chick embryo; 0.5 mM): 30%
- Alive (chick embryo; 0.5 mM): 7
- Dead (chick embryo; 0.5 mM): 3
- % Alive (chick embryo; 0.75 mM): 71.43%
- % Dead (chick embryo; 0.75 mM): 28.57%
- Alive (chick embryo; 0.75 mM): 10
- Dead (chick embryo; 0.75 mM): 4
- % Alive (chick embryo; 1 mM): 80%
- % Dead (chick embryo; 1 mM): 20%
- Alive (chick embryo; 1 mM): 12
- Dead (chick embryo; 1 mM): 3
- % Alive (chick embryo; 2 mM): 66.67%
- % Dead (chick embryo; 2 mM): 33.33%
- Alive (chick embryo; 2 mM): 10
- Dead (chick embryo; 2 mM): 5
- effectiveness in CAM assay (MDA-MB-231 metastasis; concentration of 0.5 mM): minimally effective
- inhibition of metastasis (MDA-MB-231 metastasis; higher concentrations 0.75 mM, 1 mM, 2 mM, CAM assay): 70-75%
- effect on MDA-MB-231 tumor growth (MDA-MB-231 tumor growth): minor effects
- inhibition of 3D-mammosphere formation, active concentration range (MCF7 cells): low micro-molar range
- blocking of cell migration, active concentration range (MDA-MB-231 cells): low micro-molar range

Structure (SMILES): CC[C@H]1OC(=O)[C@H](C)[C@@H](O[C@H]2C[C@@](C)(OC)[C@@H](O)[C@H](C)O2)[C@H](C)[C@@H](O[C@@H]2O[C@H](C)C[C@H](N(C)C)[C@H]2O)[C@](C)(O)C[C@@H](C)CN(C)[C@H](C)[C@@H](O)[C@]1(C)O [Azithromycin]
- inhibition of anchorage-independent propagation of CSCs [1]: effectively inhibit

Structure (SMILES): C(=CC[P+](c1ccccc1)(c1ccccc1)c1ccccc1)C[P+](c1ccccc1)(c1ccccc1)c1ccccc1 [Bis-TPP, butene-1,4-bis-triphenyl-phosphonium]
- % Alive (chick embryo; 0.5 mM): 58.33%
- % Dead (chick embryo; 0.5 mM): 41.67%
- Alive (chick embryo; 0.5 mM): 7
- Dead (chick embryo; 0.5 mM): 5
- effect on MDA-MB-231 cancer metastasis (MDA-MB-231 metastasis; CAM assay in chicken eggs, treated daily for 8 days): functional prevention of cancer metastasis; also recorded: significantly prevented metastasis
- IC50 (MCF7 cells; read-out: IC-50, inhibition of 3D-mammosphere formation): < 500 nM
